{
  "source": "patent US20250127787A1",
  "about": "“METHODS FOR TREATING PERIPHERAL NEUROPATHY” (University of Pittsburgh - Of the Commonwealth System of …, priority 2021, published 2025)",
  "key": {"[1]": {"test_system": "superoxide dismutase (SOD1)", "experiment": "SOD1 expression in CYP-CIPN rat peripheral (sciatic) nerves, Western immunoblotting", "type": "in vivo", "settings": "8-AG 5 mg/kg/day in drinking water from 2 weeks prior to CYP", "experimental": "Animals. This study employed female Harlan Sprague Dawley (HSD) rats (3-4 mo; Envigo, Indianapolis, IN) and were divided into the following groups: 1) Control, 2) Cyclophosphamide (CYP, 75 mg/kg i.p. in saline vehicle; administered on days 0, 3 and 6); 3) 8-aminoguanine (8-AG; 5 mg/kg/day in drinking water; beginning 2 weeks prior to CYP and continuing until sacrifice (day 8)). The dose of 8-AG is based on our preliminary and published experiments. […] The investigation conforms to the Guide for the Care and Use of Laboratory Animals published by the US National Institutes of Health (NIH Publication No. 85-23, revised 1996). […]\nWestern immunoblotting: Following the testing paradigms, rats were deeply anesthetized and tissues (e.g., epidermis, peripheral sciatic nerves, spinal cord segments (L3-L5) and dorsal root ganglia (L3-L5) were removed, and a portion of each preparation was homogenized using Lysing Matrix D in a FASTPREP® 24 instrument (MP Biomedicals, Solon, OH) in HBSS [5 mM KCl, 0.3 mM KH2PO4, 138 mM NaCl, 4 mM NaHO3, 0.3 mM Na2HCO3, 0.3 mM Na2HPO4, 5.6 mM glucose and 10 mM Hepes, pH 7.4 containing complete protease inhibitor cocktail (1 tablet/10 ml, Roche, Indianapolis, IN)] and phosphatase inhibitor cocktail (Sigma, 1:100). […] The protein concentrations of the supernatants were determined using the Pierce BCA protein assay (Thermo Scientific, Rockford, IL). […]"}, "CYP—CIPN rats": {"test_system": "CYP—CIPN rats", "experiment": "Von Frey sensory testing in CYP-CIPN rats", "type": "in vivo, rat", "settings": "hindpaw, 8-AG 5 mg/kg/day in drinking water", "experimental": "Animals. This study employed female Harlan Sprague Dawley (HSD) rats (3-4 mo; Envigo, Indianapolis, IN) and were divided into the following groups: 1) Control, 2) Cyclophosphamide (CYP, 75 mg/kg i.p. in saline vehicle; administered on days 0, 3 and 6); 3) 8-aminoguanine (8-AG; 5 mg/kg/day in drinking water; beginning 2 weeks prior to CYP and continuing until sacrifice (day 8)). The dose of 8-AG is based on our preliminary and published experiments. […] The investigation conforms to the Guide for the Care and Use of Laboratory Animals published by the US National Institutes of Health (NIH Publication No. 85-23, revised 1996). In addition, all tissues (dorsal root ganglion, spinal cord, peripheral nerves and hindpaw epidermis) were removed from isoflurane anesthetized rats and the tissue was used for various experimental approaches as described below. At the end of tissue removal, animals were sacrificed by thoracotomy.\n(§1) Control, CYP and 8-AG-treated CYP rats were placed in an elevated chamber on a wire mesh floor and after acclimatization, calibrated von Frey microfilaments were applied to determine paw withdrawal threshold (PWT, in grams). Briefly, microfilaments (Stoelting Corp, USA) are applied with different forces perpendicularly to the plantar surface of both ipsilateral and contralateral hindpaw by increasing and decreasing stimulus intensity. […]"}, "PAC-CIPN rats": {"test_system": "PAC-CIPN rats", "experiment": "Von Frey sensory testing in PAC-CIPN rats", "type": "in vivo, rat", "settings": "hindpaw footpad, paclitaxel 2 mg/kg i.p., 8-AG 5 mg/kg/day in drinking water", "experimental": "(§2) Animals: This study employed female Harlan Sprague Dawley (HSD) rats (3-4 mo; Envigo, Indianapolis, IN) and were divided into the following groups: 1) Control, 2) Cyclophosphamide (CYP, 75 mg/kg i.p. in saline vehicle; administered on days 0, 3 and 6 until sacrifice on day 8); 4) Paclitaxel (2 mg/kg i.p., 2 mg/kg i.p. in saline from a stock solution of 50/50 CremophorEL/ethanol); administered on days 0, 2, 4 and 6 until sacrifice on day 8; 4) 8-aminoguanine (8-AG; 5 mg/kg/day in drinking water; beginning 2 weeks prior to either CYP or PAC and continuing until sacrifice (day 8)). The dose of 8-AG was based on the experiments described above. […] All tissues (spinal cord and hindpaw epidermis) were removed from isoflurane anesthetized rats and the tissue was used for various experimental approaches as described below. At the end of tissue removal, animals were sacrificed by thoracotomy.\nas §1, with “Von Frey sensory testing, Control,” for “Control,”, “PAC” for “CYP”, “were” for “are”"}, "IBA-1": {"test_system": "IBA-1", "experiment": "Microglial IBA-1 expression and activation in CYP-CIPN rats", "type": "in vivo, rat", "settings": "oral 8-AG; for effect on CYP-induced increase in IBA-1 expression (microglia): Western immunoblotting", "experimental": "as §2\nThus, the effectiveness of 8-aminoguanine in CYP—CIPN microglial expression and activation was evaluated."}},
  "note": "“Also recorded” adds a separate entry of the source.",
  "data": [
    {"smiles": "Nc1nc2[nH]c(N)nc2c(=O)[nH]1", "note": "[8-AG, 8-Aminoguanine]", "values": [
      {"measurement": "effect on CYP-induced decrease in SOD1 expression", "setting": "[1]", "value": "normalized; also recorded: prevented"},
      {"measurement": "effect on CYP-induced increase in sensitivity to mechanical stimuli (paw withdrawal threshold)", "setting": "CYP—CIPN rats", "value": "restored to control values; also recorded: normalizes; also recorded: normalized to control conditions"},
      {"measurement": "effect on PAC-induced increase in sensitivity to mechanical stimuli (paw withdrawal threshold)", "setting": "PAC-CIPN rats", "value": "restored to control values; also recorded: normalized"},
      {"measurement": "effect on CYP-induced increase in IBA-1 expression (microglia)", "setting": "IBA-1", "value": "normalized"},
      {"measurement": "effect on CYP-induced increase in IBA-1 expression (microglia)", "setting": "IBA-1; listed as 8-aminoguanine", "value": "reversed; also recorded: normalized"},
      {"measurement": "effect on CYP-induced increase in spinal IBA-1 activation", "setting": "IBA-1; measured by densitometry", "value": "normalized"}
    ]}
  ]
}
